Data as given in patent publication US20230028658A1, “EXPANDED DOSAGE REGIMENS FOR INTEGRIN INHIBITORS” (Pliant Therapeutics, Inc., priority 2021, published 2023).
Like-named read-outs stand apart in the source and are kept apart here.

How the values were obtained:
[1] = tested on: healthy mice; assay: pSMAD3/SMAD3 in lung tissue and BALF of healthy mice; type: in vivo; details: 4 days of compound 5 treatment, FIG. 4B
Text: It has been previously shown that inhibition of αvβ6 in the lung can be detected though measurement of phospho-SMAD (pSMAD) in alveolar macrophages. Alveolar macrophages are known to operate in a unique niche in the lung, distinct from interstitial macrophages. SMAD3 is a downstream target of the active TGF-β cytokine binding its receptor and in alveolar macrophages it is phosphorylated by homoeostatic levels of TGF-β. Accordingly, it was desirable to know whether inhibition of TGF-β activation using the disclosed compounds would result in reduced SMAD2 and SMAD3 phosphorylation.
Mice (C57BL/6) were divided into healthy (n=15), vehicle-treated (n=15), and test article-treated (n=15 per dose) groups. […] […] […] […] […] […] […] Samples were prepared for analysis either directly from lung tissue, or by bronchoalveolar lavage, which washes out the bronchiolar and alveolar space with saline to produce a bronchoalveolar lavage fluid (BALF) in which 80-90% of cells are alveolar macrophages.
FIG. 4A is a graph of PSMAD3/SMAD3 in lung tissue from healthy mice administered PBS vehicle and varying levels of compound 5 for 4 days. FIG. 4B is a graph of PSMAD3/SMAD3 in BALF drawn from the same healthy mice administered PBS vehicle and varying levels of compound 5 for 4 days.

[2] = tested on: IPF-derived human lung fibroblasts; assay: LAP adhesion binding assay, IPF-derived human lung fibroblasts (xCELLigence cell index); type: cell-based; details: FIG. 3B, adhesion to LAP
Protocol: Two latency associated peptide (LAP) adhesion binding assays were devised using primary human lung cells, including normal (healthy) human bronchial epithelial cells and human lung fibroblasts (healthy and IPF).
Human lung fibroblasts derived from normal and IPF lung tissue are known to express αvβ1 integrin. The IPF-derived human lung fibroblasts were prepared for the assay by dissociation with trypsin/EDTA, and were seeded at 20,000 cells per well on 96 well plates (ACEA Bioscience E-plate View, Acea Biosciences; San Diego, Calif.) previously coated with 5 μg/ml of recombinant human LAP (R&D Systems; Minneapolis, Minn.) and blocked with 4% bovine serum albumin. Cell index (electrical impedance) was measured to assess cell attachment/spreading every 3 minutes for 24 hours at 37° C./5% CO2 using the xCELLigence RTCA MP Instrument (Acea Biosciences; San Diego, Calif.). […] In the assay, the IPF-derived human lung fibroblasts were separately incubated with: the αvβ1-selective small molecule inhibitor; the selective antibody αvβ6 inhibitor, 3G9; and compound 5.

[3] = tested on: lung Col1a1 expression; assay: Precision cut lung slices, chronic bleomycin, comparison with nintedanib and pirfenidone (Example B10); type: cell-based, Mice (C57BL/6); details: chronic bleomycin PCLS, 7 days culture, vs DMSO vehicle; FIG. 6A
Protocol: Mice (C57BL/6) were administered 3 U/kg of bleomycin (Teva Pharmaceuticals; North Wales, Pa.) on Day 0 and 1 U/kg of bleomycin on days 14, 28, 42 and 56 via oropharyngeal aspiration while under anesthesia. At day 70, 14 days following the final bleomycin insult, precision cut lung slices were obtained. Following euthanization, 2% low gelling temp agarose was injected into the mouse lungs via the trachea. […] The lobes were then subjected to precision slicing to obtain samples for culture using a microtome (Compresstome VF-300-0Z, Precisionary; Greenville, N.C.). Individual slices were distributed in a multiwell culture plate and cultured for 7 days under control (DMSO) and test compound conditions. The viability of the slices over the course of culturing was confirmed by WST-1 assay of mitochondrial activity.
During the culture period, slices in the control group were treated with DMSO and slices in the test group were treated with a DMSO solution of one of: compound 5; nintedanib; pirfenidone; a combination of nintedanib and compound 5; a combination of pirfenidone and compound 5; or the small molecule ALK5 inhibitor. Compound 5 was […] effective to equal or exceed its respective IC50 values at αvβ6 and αvβ1. […] Nintendanib and pirfenidone were analyzed at concentrations 10× their reported therapeutic concentrations.

[4] = Binding to plasma proteins, equilibrium dialysis; type: in vitro ADME; details: human, plasma of dosed study participants, oral, participants' plasma Day 7
Protocol: Binding to plasma proteins was determined in participants' plasma (Day 7) using a qualified equilibrium dialysis protocol. The mean % unbound was 0.292%±0.067%, and ranged from 0.182% to 0.38% across the 20-mg cohort participants. The mean % unbound was 0.318%+0.065% and ranged from 0.22% to 0.376% across the 40-mg cohort participants. Due to the unexpected amount of plasma protein binding in these participants, it was decided to examine higher doses of the dual […] inhibitor (Compound 5) to determine whether such higher doses would compensate for the high protein binding and provide greater amounts of free drug.

[5] = tested on: pSMAD2/SMAD2; assay: pSMAD2/SMAD2 in BALF cells of healthy participants, Example B15 Part 1; type: in vivo, human; details: preliminary analysis
Text: The primary objective of this study was to assess the pharmacodynamic changes in biomarkers of TGF-β activation in alveolar macrophages from bronchoalveolar lavage fluid (BALF) following dosing of Compound 5 for 7 days. Secondary objectives of this study were to assess the safety and tolerability of Compound 5 following dosing for 7 days, the plasma PK of Compound 5, and the PK/PD (BALF biomarkers) relationship.
This study was designed as a randomized, double-blind, placebo-controlled study in 48 healthy participants conducted in 2 parts. Part 1 has completed clinical conduct, and Part 2 is ongoing. In Part 1, 24 participants were randomized 1:1:1 to receive Compound 5 80 mg QD, Compound 5 160 mg QD, or placebo QD. A safety review committee reviewed the safety and PK data from Part 1 and recommended doses for Part 2. In Part 2, 24 participants were randomized 1:1:1 to receive Compound 5 320 mg QD (Compound 5 in the morning and matched placebo in the afternoon), Compound 5 160 mg twice daily (BID), or placebo BID. In both parts, samples of BALF were collected from the middle lobe or lingula via bronchoscopy prior to dosing (Day −1) and at 6 and 24 hours post morning dose on Day 7. BALF samples were assessed for TGF-β receptor kinase activity (pSMAD2/SMAD2) in pelleted cells (primarily alveolar macrophages) and additional cell material was used to measure TGF-β signaling pathway-related gene expression levels. Plasma samples were collected to measure Compound 5 concentrations and determine protein binding. Safety was monitored via open-ended AE inquiry and clinical chemistry, hematology, vital sign, and 12-lead ECG parameters.

fraction unbound ([4]; 20 mg, 20-mg cohort, read-out: % unbound, range across participants): 0.00182 to 0.0038
fraction unbound ([4]; 20 mg, 20-mg cohort, read-out: mean % unbound): 0.00292
fraction unbound ([4]; 40 mg, 40-mg cohort, read-out: % unbound, range across participants): 0.0022 to 0.00376
fraction unbound ([4]; 40 mg, 40-mg cohort, read-out: mean % unbound): 0.00318
SMILES: COCCN(CCCCc1ccc2c(n1)NCCC2)CC[C@H](Nc1ncnc2ccccc12)C(=O)O [Compound 5, (S)-4-((2-methoxyethyl) (4-(5,6,7,8-tetrahydro-1,8-naphthyridin-2-yl)butyl)amino)-2-(quinazolin-4-ylamino) butanoic acid]
PSMAD3/SMAD3 in cells isolated from BALF [1]: approximately 50 % of the untreated levels
inhibition of cell adhesion in the IPF-derived lung fibroblasts [2]: substantially inhibited
lung slice Col1a1 expression [3]: substantial, statistically significant (p<0.01 vs vehicle) decrease
reduction in pSMAD2 levels (pSMAD2/SMAD2 ratio) ([5]; 80 mg QD 7 days, 6 hours post dose Day 7): 41.2%
reduction in pSMAD2 levels (pSMAD2/SMAD2 ratio) ([5]; 80 mg QD 7 days, 24 hours post dose Day 7): 36.6%
reduction in pSMAD2 levels (pSMAD2/SMAD2 ratio) ([5]; 160 mg QD 7 days, 6 hours post dose Day 7): 57.8%
reduction in pSMAD2 levels (pSMAD2/SMAD2 ratio) ([5]; 160 mg QD 7 days, 24 hours post dose Day 7): 53.2%
